Test results reported in patent US20080221131A1, “THIENOPYRIMIDINEDIONES AND THEIR USE IN MODULATION OF AUTOIMMUNE DISEASE” (priority 2003, published 2008).

Tested on: PMA/ionomycin-stimulated PBMC proliferation
Experiment: Inhibition of PMA/ionomycin-stimulated peripheral blood mononuclear cell proliferation
Format: cell-based
Conditions: human PBMC, PMA 0.5 ng/ml + ionomycin 500 ng/ml, 72 hours, 3H-thymidine incorporation; read-out: PIA50 (the source's name) (converted)
Method: Inhibition of PMA/Ionomycin-Stimulated Peripheral Blood Mononuclear Cell Proliferation
The assay for PMA/ionomycin-stimulated PBMC proliferation was performed in 96-well flat-bottomed microtitre plates. Compounds were prepared as 10 mM stock solutions in dimethyl sulfoxide. A 50-fold dilution of this was prepared in RPMI and serial dilutions were prepared from this solution. 10 μl of the 50-fold diluted stock, or dilutions of it, were added to the well to give concentrations in the assay starting at 9.5 μM and going down. Into each well was placed 1×10^5 PBMC, prepared from human peripheral blood from a single donor, in RPMI1640 medium supplemented with 10% human serum, 2 mM glutamine and penicillin/streptomycin. Phorbol myristate acetate (PMA) (0.5 ng/ml final concentration) and ionomycin (500 ng/ml final concentration) were added to these cells in supplemented RPMI1640 medium (as above) so that the final volume of the assay was 0.2 ml. The cells were incubated at 37° C. in a humidified atmosphere at 5% carbon dioxide for 72 hours. ^3H-Thymidine (0.5 μCi) was added for the final 6 hours of the incubation. The level of radioactivity incorporated by the cells was then determined and this is a measure of proliferation.

SMILES	IC50 [nM]
Cc1nn(-c2ncccn2)c(C)c1Cc1sc2c(c1C(=O)N1C[C@H](O)CO1)c(=O)n(C)c(=O)n2C(C)C [Example 1, 6-[[3,5-dimethyl-1-(2-pyrimidinyl)-1H-pyrazol-4-yl]methyl]-5-[[(4S)-4-hydroxy-2-isoxazolidinyl]carbonyl]-3-methyl-1-(1-methylethyl)thieno[2,3-d]pyrimidine-2,4(1H,3H)-dione]	5.01
Cc1nn(-c2nccs2)c(C)c1Cc1sc2c(c1C(=O)N1C[C@H](O)CO1)c(=O)n(C)c(=O)n2C(C)C [Example 3, (S)-2-[[6-[[3,5-Dimethyl-1-(2-thiazolyl)-1H-pyrazol-4-yl]methyl]-1,2,3,4-tetrahydro-3-methyl-1-(1-methylethyl)-2,4-dioxothieno[2,3-d]pyrimidin-5-yl]carbonyl]-4-isoxazolidinol]	0.851
